According to patent US9618513B2, “Compositions and methods for detecting and treating colorectal cancer” (The Regents of the University of Michigan, priority 2014, dated 2017):
Entries after “also recorded” stand apart in the source; their conditions may differ.

How the values were obtained:
Assay type in all cases: cell-based, human
[1] = system: H3K79me2 on NANOG, SOX2, POU5F1 promoters; test: H3K79me2-ChIP at core stem cell gene promoters
Experimental: (§1) (A) IL-22 induces H3K79me2 in colon cancer cells. Colon cancer cells were treated with IL-22 for 48 hours. Total histone modifications were analyzed by western blot. (B, C) DOT1L inhibitor, EPZ004777 suppresses colon cancer sphere formation induced by IL-22. Colon cancer sphere assay was performed in the presence of IL-22 and EPZ004777. Sphere numbers were recorded. DLD-1 cells (B), primary colon cancer cells (C). (n=5, P<0.05). (D, E) IL-22 stimulates DOT1L complex gene expression. Colon cancer cells were cultured for 12 hours with IL-22. DOT1L complex gene expression was quantified by real-time PCR. DLD-1 cells (D), primary colon cancer cells (E). (n=3, P<0.05). (F) DOT1L knock down results in reduced colon cancer sphere formation induced by IL-22. Colon cancer sphere assay was performed with colon cancer cells expressing sh-DOT1L or vector in the presence of IL-22. Sphere numbers were recorded. (n=5, P<0.05). (G-I), IL-22 causes higher occupancy of H3K79me2 on core stem cell gene promoters. H3K79me2-ChIP assay was performed in DLD-1 colon cancer cells cultured with IL-22. One of 3 experiments is shown. (J-L), DOT1L inhibitor, EPZ004777 results in reduced occupancy of H3K79 on core stem cell gene promoters induced by IL-22. H3K79me2 ChIP was performed in DLD-1 colon cancer cells cultured with or without IL-22 and EPZ004777. One of three experiments is shown. […]

[2] = system: H3K79me2 (DOT1L); test: Histone marks by western blot in colon cancer cells
Experimental: as §1, with “shown.” for “shown. (J-L), DOT1L inhibitor, EPZ004777 results in reduced occupancy of H3K79 on core stem cell gene promoters induced by IL-22. H3K79me2 ChIP was performed in DLD-1 colon cancer cells cultured with or without IL-22 and EPZ004777. One of three experiments is shown.”
DLD1 and primary colon cancer cells (#2) were cultured with different concentrations of EPZ004777. Histone marks were detected by western blot. […]
Colon cancer cells were transfected with control vectors or the shDOT1L vector. Histone marks were detected by Western blot. […]

[3] = system: STAT3 occupancy on gene promoters; test: STAT3-ChIP assay
Experimental: (A) IL-22 induced STAT3 phosphorylation. Colon cancer cells were treated with IL-22 for different time points. The protein levels of phosphorylated STAT3 and STAT3 were detected by Western blotting. (B, C) IL-22 induced colon cancer spheres via STAT3. Sphere assay was performed with shSTAT3 colon cancer cells in the presence of IL-22. Results were shown as sphere images (b) and the mean numbers of spheres in triplicate (c). (n=5. P<0.01). (D-F) IL-22 stimulated colon cancer sternness gene expression via STAT3. Colon cancer cells expressing shSTAT3 or scrambled vector were cultured with IL-22. Stem cell core gene mRNAs were detected by real-time PCR after 6 hours (n=5, *P<0.05). (G, H) IL-22 causes STAT3 occupancy on SOX2 promoter areas. STAT3-ChIP assay was performed in DLD-1 cells cultured with or without IL-22. One of at least three experiments is shown.
(A-C)IL-22 increases STAT3 occupancy on the DOT1L (A), AFF4 (B), and MLLT3 (C) proximal promoter. STAT3-ChIP assay was performed in DLD-1 colon cancer cells cultured with or without IL-22. One of three experiments is shown. (D-F) STAT3 knock down reduces H3K79me2 occupancy at proximal promoters of core stem cell genes. H3K79me2-ChIP was performed in colon cancer cells cultured with IL-22 for 24 hours. One of three experiments is shown.
A. The protein level of phosphorylated STAT3, STAT1 and STATS were activated by IL-22. B. The effect of STAT3 knock down. C. The effect of IL-22 on cell proliferation was analyzed using H^3 Thymidine Incorporation in Stat3 knock down cells. D. Knock down of STAT3 reduced the expression of EZH2 and SUZ12. E. Based on the ENCODE STAT3-ChIP-Seq data base, STAT3 occupancy on the promoter areas of SUZ12 and EED is shown. F. SUZ12/EED DNA was detected by ChIP assay using an antibody against STAT3, c-fos was used as a positive control.
ChIP assay was performed according to the protocol with exceptions stated below (Upstate, Millipore; http://www. (followed by) millipore.com/techpublications/tech1/mcproto407). Crosslinking was performed with 1% formaldehyde or 1% paraformaldehyde for 10 minutes. […]

Compound	H3K79me2 binding in the stem cell gene promoter sites induced by IL-22 ([1]; DLD-1 with or without IL-22 and EPZ004777)	H3K79me2 / H3K79 methylation ([2]; DLD1 and primary colon cancer cells (#2), different concentrations)	H3K79me2 binding in proximal promoter areas of NANOG, SOX2, POU5F1 ([1]; DLD-1 cultured with IL-22)	dimethylation of histone 3 lysine 79 (H3K79me2), total ([2]; colon cancer cells, IL-22 48 hours)	recruitment of STAT3 to the SUZ12 and EED promoter ([3]; ChIP realtime PCR)	STAT3 binding on the SOX2 promoter area ([3]; DLD-1 with or without IL-22)	STAT3 binding to the DOT1L, AFF4 and MLLT3 promoter ([3]; DLD-1 with or without IL-22)
CC(C)N(CCCNC(=O)Nc1ccc(C(C)(C)C)cc1)C[C@H]1O[C@@H](n2ccc3c(N)ncnc32)[C@H](O)[C@@H]1O [EPZ004777]	reduced	reduced; also recorded: specifically inhibits					
IL-22: recombinant IL-22 (R&D systems), cytokine interleukin-22			increase	selectively increased	significantly increased	increased	increased
